Tests used:
JAK1 = JAK1 (Homo sapiens (Human), UniProt P23458); assay: LanthaScreen JAK biochemical assay, JAK1; conditions: for Ki: read-out: JAK 1 (pKi) (converted)
Protocol: A panel of four LanthaScreen JAK biochemical assays (JAK1, 2, 3 and Tyk2) were carried in a common kinase reaction buffer (50 mM HEPES, pH 7.5, 0.01% Brij-35, 10 mM MgCl2, and 1 mM EGTA). Recombinant GST-tagged JAK enzymes and a GFP-tagged STAT1 peptide substrate were obtained from Life Technologies.

[1] = tested on: IL-13 induced STAT6 phosphorylation in HT-29 human colorectal adenocarcinoma cells; assay: Cellular JAK potency assay: inhibition of IL-13 induced STAT6 phosphorylation; type: cell-based; conditions: IL-13 induced STAT6 phosphorylation, HT-29 cells; for IC50: Homo sapiens, read-out: HT-29 (pIC50) (converted)
Protocol: The potency of test compounds for inhibition of the JAK-dependent cytokine interleuken-13 (IL-13) was assessed by measuring IL-13 (IL-13, R&D Systems) induced STAT6 phosphorylation in HT-29 human colorectal adenocarcinoma cells (ATCC).
The anti-STAT6 antibody (Cell Signaling Technologies) was conjugated to AlphaScreen acceptor beads (Perkin Elmer), while the anti-pSTAT6 (pTyr641) antibody (Cell Signaling Technologies) was biotinylated using EZ-Link Sulfo-NHS-Biotin (Thermo Scientific).
HT-29 cells were grown at 37° C. in a 5% CO2 humidified incubator in McCoy's 5a Modified medium (ATCC) supplemented with 10% FBS (Hyclone), 100 U/mL penicillin, 100 μg/mL streptomycin (Life Technologies), and 2 mM GlutaMAX (Life Technologies). On day 1 of the assay, cells were seeded at a 7,500 cells/well density in white poly-D-lysine-coated 384-well plates (Corning) with 25 μL medium, and were allowed to adhere overnight in the incubator. On day 2 of the assay, the medium was removed and replaced with 12 μL of assay buffer (Hank's Balanced Salt Solution/HBSS, 25 mM HEPES, and 1 mg/ml bovine serum albumin/BSA) containing dose-responses of test compounds. Compounds were serially diluted in DMSO and then diluted another 1000-fold in media to bring the final DMSO concentration to 0.1%. Cells were incubated with test compounds at 37° C. for 1 h, and followed by the addition of 12 μL of pre-warmed IL-13 (12 ng/ml in assay buffer) for stimulation. After incubating at 37° C. for 30 min, the assay buffer (containing compound and IL-13) was removed, and 10 μL of cell lysis buffer (25 mM HEPES, 0.1% SDS, 1% NP-40, 5 mM MgCl2, 1.3 mM EDTA, 1 mM EGTA, and supplement with Complete Ultra mini protease inhibitors and PhosSTOP from Roche Diagnostics). The plates were shaken at ambient temperature for 30 min before the addition of detection reagents. A mixture of biotin-anti-pSTAT6 and anti-STAT6 conjugated acceptor beads was added first and incubated at ambient temperature for 2 h, followed by the addition of streptavidin conjugated donor beads (Perkin Elmer). After a minimum of 2 h incubation, the assay plates were read on the EnVision plate reader.
Results were expressed as the negative logarithm of the IC50 value, pIC50.

Sequence of JAK1 (P23458 whole entry): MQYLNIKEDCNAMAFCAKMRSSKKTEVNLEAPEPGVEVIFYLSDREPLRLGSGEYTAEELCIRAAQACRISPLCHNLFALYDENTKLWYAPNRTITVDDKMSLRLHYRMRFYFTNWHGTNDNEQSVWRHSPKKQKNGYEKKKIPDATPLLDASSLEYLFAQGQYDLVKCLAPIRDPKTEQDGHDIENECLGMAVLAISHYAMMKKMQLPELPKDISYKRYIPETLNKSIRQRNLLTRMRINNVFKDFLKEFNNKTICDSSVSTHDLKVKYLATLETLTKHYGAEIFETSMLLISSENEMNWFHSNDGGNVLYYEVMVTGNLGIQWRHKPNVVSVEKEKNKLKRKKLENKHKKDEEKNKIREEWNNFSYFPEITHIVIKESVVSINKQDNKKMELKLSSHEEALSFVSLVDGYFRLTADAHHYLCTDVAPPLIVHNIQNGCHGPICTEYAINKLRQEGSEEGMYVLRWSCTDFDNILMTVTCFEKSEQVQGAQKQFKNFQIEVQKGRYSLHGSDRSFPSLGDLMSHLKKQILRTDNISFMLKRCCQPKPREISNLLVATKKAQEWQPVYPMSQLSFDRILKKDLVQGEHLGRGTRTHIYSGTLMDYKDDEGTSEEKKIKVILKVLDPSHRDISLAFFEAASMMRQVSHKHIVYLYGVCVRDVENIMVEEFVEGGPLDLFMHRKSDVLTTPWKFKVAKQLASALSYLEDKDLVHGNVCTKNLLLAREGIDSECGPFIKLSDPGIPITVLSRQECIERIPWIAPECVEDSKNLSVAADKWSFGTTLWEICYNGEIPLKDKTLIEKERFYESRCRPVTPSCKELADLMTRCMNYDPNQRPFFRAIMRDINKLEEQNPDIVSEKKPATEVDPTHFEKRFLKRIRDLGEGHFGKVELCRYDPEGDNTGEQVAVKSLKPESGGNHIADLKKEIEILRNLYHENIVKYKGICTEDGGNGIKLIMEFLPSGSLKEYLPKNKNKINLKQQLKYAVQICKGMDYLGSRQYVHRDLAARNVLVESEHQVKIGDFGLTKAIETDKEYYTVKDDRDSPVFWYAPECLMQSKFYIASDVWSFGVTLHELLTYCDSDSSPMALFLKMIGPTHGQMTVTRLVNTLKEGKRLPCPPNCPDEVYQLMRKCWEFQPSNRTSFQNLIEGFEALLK

SMILES	JAK 1 (pKi) (JAK1)	HT-29 (pIC50) [1]	Ki (JAK1)	IC50 [1]
COc1cc(Nc2cc(CO)[nH]n2)nc(N(C)[C@@H]2C[C@H]3CCC[C@@H](C2)N3Cc2ccncc2)n1 [Example 2-7, (3-((6-methoxy-2-(methyl((1R,3s,5S)-9-(pyridin-4-ylmethyl)-9-azabicyclo[3.3.1]nonan-3-yl)amino)pyrimidin-4-yl)amino)-1H-pyrazol-5-yl)methanol]	B (B represents a pKi value between 9 and 10 (Ki between 1 nM and 0.1 nM))	B (B represents a pIC50 value between 6.7 and 7.5 (IC50 between 200 nM and 32 nM))		
COc1cc(Nc2cc(CO)[nH]n2)nc(N(C)[C@@H]2C[C@H]3CCC[C@@H](C2)N3S(=O)(=O)CC2CC2)n1 [Example 1-18, (3-((2-(((1R,3s,5S)-9-((cyclopropylmethyl)sulfonyl)-9-azabicyclo[3.3.1]nonan-3-yl)(methyl)amino)-6-methoxypyrimidin-4-yl)amino)-1H-pyrazol-5-yl)methanol]	B (B represents a pKi value between 9 and 10 (Ki between 1 nM and 0.1 nM))			
COc1cc(Nc2cc(CO)[nH]n2)nc(N[C@@H]2C[C@H]3CCC[C@@H](C2)N3Cc2ccnc(C#N)c2)n1 [Example 2-3, 4-(((1R,3s,5S)-3-((4-((5-(hydroxymethyl)-1H-pyrazol-3-yl)amino)-6-methoxypyrimidin-2-yl)amino)-9-azabicyclo[3.3.1]nonan-9-yl)methyl)picolinonitrile]	B (B represents a pKi value between 9 and 10 (Ki between 1 nM and 0.1 nM))	B (B represents a pIC50 value between 6.7 and 7.5 (IC50 between 200 nM and 32 nM))		
COc1cc(Nc2cc(CO)[nH]n2)nc(N[C@@H]2C[C@H]3CC[C@@H](C2)N3S(=O)(=O)c2cccnc2)n1 [Example 1-3]			1 to 10 nM	200 to 1000 nM
COc1cc(Nc2cc(CO)[nH]n2)nc(N[C@@H]2C[C@H]3CCC[C@@H](C2)N3S(=O)(=O)c2cncc(F)c2)n1 [Example 1-7, (3-((2-(((1R,3s,5S)-9-((5-fluoropyridin-3-yl)sulfonyl)-9-azabicyclo[3.3.1]nonan-3-yl)amino)-6-methoxypyrimidin-4-yl)amino)-1H-pyrazol-5-yl)methanol]	B (B represents a pKi value between 9 and 10 (Ki between 1 nM and 0.1 nM))			
COc1cc(Nc2cc(CO)[nH]n2)nc(N[C@@H]2C[C@H]3CCC[C@@H](C2)N3Cc2ccc(C#N)nc2)n1 [Example 6, 5-(((1R,3s,5S)-3-((4-((5-(hydroxymethyl)-1H-pyrazol-3-yl)amino)-6-methoxypyrimidin-2-yl)amino)-9-azabicyclo[3.3.1]nonan-9-yl)methyl)picolinonitrile]			0.1 to 1 nM	
COc1cc(Nc2cc(CO)[nH]n2)nc(N(C)[C@@H]2C[C@H]3CCC[C@@H](C2)N3S(=O)(=O)c2cncc(F)c2)n1 [Example 1-19, (3-((2-(((1R,3s,5S)-9-((5-fluoropyridin-3-yl)sulfonyl)-9-azabicyclo[3.3.1]nonan-3-yl)(methyl)amino)-6-methoxypyrimidin-4-yl)amino)-1H-pyrazol-5-yl)methanol]	B (B represents a pKi value between 9 and 10 (Ki between 1 nM and 0.1 nM))	A (A represents a pIC50 value≥7.5 (IC50≤32 nM))		
COc1cc(Nc2cc(CO)[nH]n2)nc(N[C@@H]2C[C@H]3CCC[C@@H](C2)N3Cc2ccncc2)n1 [Example 2-2]	B (B represents a pKi value between 9 and 10 (Ki between 1 nM and 0.1 nM))	B (B represents a pIC50 value between 6.7 and 7.5 (IC50 between 200 nM and 32 nM))		
COc1cc(Nc2cc(CO)[nH]n2)nc(N[C@@H]2C[C@H]3CCC[C@@H](C2)N3S(=O)(=O)N2CC(C#N)C2)n1 [Example 1-6, 1-(((1R,3s,5S)-3-((4-((5-(hydroxymethyl)-1H-pyrazol-3-yl)amino)-6-methoxypyrimidin-2-yl)amino)-9-azabicyclo[3.3.1]nonan-9-yl)sulfonyl)azetidine-3-carbonitrile]	A (A represents a pKi value≥10 (Ki≤0.1 nM))	B (B represents a pIC50 value between 6.7 and 7.5 (IC50 between 200 nM and 32 nM))		
COc1cc(Nc2cc(CO)[nH]n2)nc(N(C)C2C[C@H]3CCC[C@@H](C2)N3C(=O)C(F)F)n1 (stereo partly drawn) [Example 9, 2,2-difluoro-1-((1R,3s,5S)-3-((4-((5-(hydroxymethyl)-1H-pyrazol-3-yl)amino)-6-methoxypyrimidin-2-yl)(methyl)amino)-9-azabicyclo[3.3.1]nonan-9-yl)ethan-1-one]				31.6 to 200 nM
COc1cc(Nc2cc(CO)[nH]n2)nc(N[C@@H]2C[C@H]3CCC[C@@H](C2)N3Cc2cccnc2)n1 [Example 2-4, (3-((6-methoxy-2-(((1R,3s,5S)-9-(pyridin-3-ylmethyl)-9-azabicyclo[3.3.1]nonan-3-yl)amino)pyrimidin-4-yl)amino)-1H-pyrazol-5-yl)methanol]	B (B represents a pKi value between 9 and 10 (Ki between 1 nM and 0.1 nM))	B (B represents a pIC50 value between 6.7 and 7.5 (IC50 between 200 nM and 32 nM))		
COc1cc(Nc2cc(CO)[nH]n2)nc(N[C@@H]2C[C@H]3CCC[C@@H](C2)N3S(=O)(=O)N2CCC2)n1 [Example 1-5, (3-((2-(((1R,3s,5S)-9-(azetidin-1-ylsulfonyl)-9-azabicyclo[3.3.1]nonan-3-yl)amino)-6-methoxypyrimidin-4-yl)amino)-1H-pyrazol-5-yl)methanol]	B (B represents a pKi value between 9 and 10 (Ki between 1 nM and 0.1 nM))	B (B represents a pIC50 value between 6.7 and 7.5 (IC50 between 200 nM and 32 nM))		
COc1cc(Nc2cc(CO)[nH]n2)nc(N[C@@H]2C[C@H]3CC[C@@H](C2)N3Cc2ccncc2)n1 [Example 2-1]	C (C represents a pKi value between 8 and 9 (Ki between 10 nM and 1 nM))	C (C represents a pIC50 value between 6 and 6.7 (IC50 between 1 μM and 200 nM))		
COc1cc(Nc2cc(CO)[nH]n2)nc(N[C@@H]2C[C@H]3CCC[C@@H](C2)N3C(=O)C(F)F)n1 [Example 3-1, 2,2-difluoro-1-((1R,3s,5S)-3-((4-((5-(hydroxymethyl)-1H-pyrazol-3-yl)amino)-6-methoxypyrimidin-2-yl)amino)-9-azabicyclo[3.3.1]nonan-9-yl)ethan-1-one]	B (B represents a pKi value between 9 and 10 (Ki between 1 nM and 0.1 nM))			
COc1cc(Nc2cc(CO)[nH]n2)nc(N[C@@H]2C[C@H]3CC[C@@H](C2)N3S(=O)(=O)N2CCC2)n1 [Example 1-1]			1 to 10 nM	31.6 to 200 nM
COc1cc(Nc2cc(CO)[nH]n2)nc(N[C@@H]2C[C@H]3CCC[C@@H](C2)N3S(=O)(=O)c2ccccc2)n1 [Example 1-8, (3-((6-methoxy-2-(((1R,3s,5S)-9-(phenylsulfonyl)-9-azabicyclo[3.3.1]nonan-3-yl)amino)pyrimidin-4-yl)amino)-1H-pyrazol-5-yl)methanol]	A (A represents a pKi value≥10 (Ki≤0.1 nM))	A (A represents a pIC50 value≥7.5 (IC50≤32 nM))		
COc1cc(Nc2cc(CO)[nH]n2)nc(N[C@@H]2C[C@H]3CC[C@@H](C2)N3S(=O)(=O)c2ccccc2)n1 [Example 1-4]			10 to 31.6 nM	
COc1cc(Nc2cc(CO)[nH]n2)nc(N[C@@H]2C[C@H]3CC[C@@H](C2)N3S(=O)(=O)N2CC(C#N)C2)n1 [Example 1-2]			0.1 to 1 nM	200 to 1000 nM
COc1cc(Nc2cc(CO)[nH]n2)nc(N[C@@H]2C[C@H]3CCC[C@@H](C2)N3S(=O)(=O)c2cccnc2)n1 [Example 1-11, (3-((6-methoxy-2-(((1R,3s,5S)-9-(pyridin-3-ylsulfonyl)-9-azabicyclo[3.3.1]nonan-3-yl)amino)pyrimidin-4-yl)amino)-1H-pyrazol-5-yl)methanol]	B (B represents a pKi value between 9 and 10 (Ki between 1 nM and 0.1 nM))	B (B represents a pIC50 value between 6.7 and 7.5 (IC50 between 200 nM and 32 nM))		
COc1cc(Nc2cc(CO)[nH]n2)nc(N[C@@H]2C[C@H]3CCC[C@@H](C2)N3S(=O)(=O)CC2CC2)n1 [Example 1-10, (3-((2-(((1R,3s,5S)-9-((cyclopropylmethyl)sulfonyl)-9-azabicyclo[3.3.1]nonan-3-yl)amino)-6-methoxypyrimidin-4-yl)amino)-1H-pyrazol-5-yl)methanol]	B (B represents a pKi value between 9 and 10 (Ki between 1 nM and 0.1 nM))			

From patent US10028960B2, “Pyrimidine compounds as JAK kinase inhibitors” (THERAVANCE BIOPHARMA R&D IP, LLC, priority 2016, dated 2018)
